{"source": "patent US20070117864A1", "about": "“Composition for preventing and treating hepatoma” (Tokyo University of Agr. & Tech. TLO Co., Ltd., priority 2003, published 2007)", "key": {"[1]": {"test_system": "AH109A cells", "experiment": "cell cycle analysis of hepatoma cells by PI staining and flow cytometry", "assay_type": "cell-based, rat", "method": "The effects of 6.25 μM and 12.5 μM ENL on the cell cycle of AH109A cells were analyzed. The AH109A cells were inoculated into a 6-well plate (NUNC) at the density of 2.5×10^5 cells per well, and the cells were cultured for 0, 24 and 48 hours at 37° C. in a CO2 incubator. The AH109A cells cultured under the respective treatment conditions were recovered in 2-ml sampling tubes (Nippon Genetex, Tokyo); these cells were centrifuged for 5 minutes at 1000 rpm (190×g), 4° C., and then washed twice with PBS (−). Subsequently, 300 μl of a PI solution (1 mg propidium iodide (SIGMA)/20 ml 0.1% Triton X-100, 0.1% sodium citrate (Wako Pure Chemical Industries)) was added, and the preparation was dyed by allowing the preparation to kept quietly on ice for 30 minutes with the light blocked. The cell cycle was analyzed with a flow cytometer (EPICS ELITE ESP; Beckman-Coulter, Hialeah, Fla., USA)."}, "[2]": {"experiment": "serum lipid levels in hepatoma-bearing rats", "assay_type": "in vivo, rat", "settings": "for Serum lipid level (VLDL + LDL)-Cholesterol (B): difference between T-Ch and HDL-Ch; for Serum lipid level (VLDL + LDL)-Cholesterol (B) / AI (B/A), atherogenic index / Serum lipid level HDL-Cholesterol (A) / Serum lipid level Total Cholesterol / Serum lipid level Triglyceride: mean ± SEM of 11 rats", "method": "Male Donryu rats of four weeks old were purchased from NRC Haruna, Gumma, Japan, and were preliminarily fed for 6 days in quintuple cages in a room with a controlled environment with light period of 8:00 to 20:00, room temperature of 22±1° C., and relative humidity of 60±5%. For the first 3 days, the animals were fed ad libitum with a stock pellet diet (CE-2; CLEA Japan, Tokyo), and for the next 3 days, they were fed a basal diet containing 20% milk casein (20C) (Table 1) ad libitum together with tap water in a glass container. Following the completion of this preparatory raising, the rats were divided into three groups (11 animals per group) with equal average body weights of the respective groups were equal, and 1.0×10^7 of AH109A cells suspended in PBS (−) were transplanted in the back of all the rats. From the time immediately after transplantation, in the respective experimental groups, the animals were fed the experimental diets shown in Table 2. During the experimental period, the body weight, food intake and solid tumor size (sum of length, width and height) were measured everyday. On the day that the animals were killed, animals were deprived of experimental diets at 9:00, but freely given water until they were killed 4 hours later. Blood was collected from carotid, and the liver and solid tumors were excised. The collected blood was allowed to stand for approximately 2 hours at room temperature, and then centrifuged for 10 minutes at 3000 rpm (1750×g), 4° C., to obtain serum. This blood serum was frozen and stored at −20° C. The livers and solid tumors were washed with physiological saline, blotted on filter paper, and weighed. Furthermore, feces from the 19th to 21st days after transplantation were collected, and these feces were frozen and stored at −20° C. for the measurement of the amounts of steroids excreted from the body. Serum cholesterol (Ch) and triglyceride (TG) concentration was measured. Total cholesterol (T-Ch) level, the high-density-lipoprotein (HDL-Ch) level (which is the supernatant fraction obtained by precipitating very-low-density-lipoprotein+low-density-lipoprotein ((VLDL+LDL)-Ch fractions) by the precipitation method using phosphotungstic acid were measured. The (VLDL+LDL)-Ch level was taken as the difference between the T-Ch and the HDL-Ch levels. Atherogenic index (AI: (VLDL+LDL)-Ch/HDL-Ch ratio) was calculated as an index of atherogenesis."}, "[3]": {"test_system": "M-cells", "experiment": "proliferative activity of M-cells by [3H]thymidine incorporation", "assay_type": "cell-based, rat", "settings": "in vitro", "method": "Male Donryu rats (4 to 10 weeks of age) were anesthetized by intraperitoneal injection of Nembutal at the dose of 5 mg/0.1 ml/100 g of body weight, and blood was collected by cutting the carotid artery. Subsequently, following disinfection using a hibiten solution, the abdomens of the animals were opened in a clean bench, and the mesenteric membranes were removed one by one and washed with PBS (−), and were then recovered in another 15 ml of PBS (−). The same amount of 0.5% trypsin in PBS (−) was added, and the preparation was agitated for 20 minutes at 37° C. Subsequently, 5 ml of a 10% CS/MEM was added, to stop the trypsin reaction. Then, the preparation was subjected to pipetting by means of a Komagome Pipette, and filtrated using a metal mesh. The filtrate was centrifuged for 10 minutes at 1500 rpm (440×g), 4° C., and was washed with PBS (−). The collected cells were inoculated into a 6 cm dish with an attached grid (2 mm square) at the density of 1.5 to 2.0×10^5 cells. The medium of 10% CS/MEM was used, and the medium was changed on the day following collection and every other day thereafter. […] Subsequently, the proliferation activity was measured as above-mentioned in (3)."}, "[4]": {"settings": "ENL treatment for 24 hours, versus 0 μM control"}, "[5]": {"settings": "ENL diet groups versus control diet group"}}, "note": "Marks after values point to notes of the source that are not given here."}
{"compound": "O=C1OCC(Cc2cccc(O)c2)C1Cc1cccc(O)c1", "note": "(centres unmarked) [Enterolactone, enterolactone]", "values": [{"measurement": "effect on the cell cycle", "setting": "[1]; ENL treatment for 0 hours, various concentrations", "value": "no effect"}, {"measurement": "proportion of the G1 phase", "setting": "[1]; [4]", "value": "increase"}, {"measurement": "proportion of the S phase", "setting": "[1]; [4]", "value": "decrease"}, {"measurement": "(VLDL+LDL)-Ch in the blood serum", "setting": "[2]; [5]", "value": "decreased significantly in a dose-dependent manner"}, {"measurement": "AI value, ratio of (VLDL+LDL)-Ch to HDL-Ch", "setting": "[2]; [5]", "value": "tendency to decrease"}, {"measurement": "HDL-Ch in the blood serum", "setting": "[2]; ENL diet groups versus control diet group, not significant", "value": "tendency increase"}, {"measurement": "Serum lipid level (VLDL + LDL)-Cholesterol (B)", "setting": "[2]; diet 10 ppm", "value": "0.68 ± 0.12^b mmol/L"}, {"measurement": "AI (B/A), atherogenic index", "setting": "[2]; diet 10 ppm", "value": "0.48 ± 0.09"}, {"measurement": "Serum lipid level HDL-Cholesterol (A)", "setting": "[2]; diet 10 ppm", "value": "1.45 ± 0.07", "unit": "mmol/L"}, {"measurement": "Serum lipid level Total Cholesterol", "setting": "[2]; diet 10 ppm", "value": "2.13 ± 0.14", "unit": "mmol/L"}, {"measurement": "Serum lipid level Triglyceride", "setting": "[2]; diet 10 ppm", "value": "0.98 ± 0.06", "unit": "mmol/L"}, {"measurement": "Serum lipid level (VLDL + LDL)-Cholesterol (B)", "setting": "[2]; diet 100 ppm", "value": "0.67 ± 0.08^b mmol/L"}, {"measurement": "AI (B/A), atherogenic index", "setting": "[2]; diet 100 ppm", "value": "0.41 ± 0.05"}, {"measurement": "Serum lipid level HDL-Cholesterol (A)", "setting": "[2]; diet 100 ppm", "value": "1.63 ± 0.06", "unit": "mmol/L"}, {"measurement": "Serum lipid level Total Cholesterol", "setting": "[2]; diet 100 ppm", "value": "2.30 ± 0.12", "unit": "mmol/L"}, {"measurement": "Serum lipid level Triglyceride", "setting": "[2]; diet 100 ppm", "value": "0.93 ± 0.06", "unit": "mmol/L"}, {"measurement": "proliferation of M-cells (normal cells)", "setting": "[3]", "value": "inhibit the proliferation of M-cells in a dose-dependent manner"}]}
